Ki data for 22 compounds are collected here from patent publication US20260242353A1, “HETEROARYL DERIVATIVES AS DDRs INHIBITORS” (CHIESI FARMACEUTICI S.P.A., priority 2022, published 2026).

The target in assay [1] is T1, DDR2 (Homo sapiens, UniProt Q16832).
T1 construct: purchased Life Technologies
T1 sequence (Q16832 22-855): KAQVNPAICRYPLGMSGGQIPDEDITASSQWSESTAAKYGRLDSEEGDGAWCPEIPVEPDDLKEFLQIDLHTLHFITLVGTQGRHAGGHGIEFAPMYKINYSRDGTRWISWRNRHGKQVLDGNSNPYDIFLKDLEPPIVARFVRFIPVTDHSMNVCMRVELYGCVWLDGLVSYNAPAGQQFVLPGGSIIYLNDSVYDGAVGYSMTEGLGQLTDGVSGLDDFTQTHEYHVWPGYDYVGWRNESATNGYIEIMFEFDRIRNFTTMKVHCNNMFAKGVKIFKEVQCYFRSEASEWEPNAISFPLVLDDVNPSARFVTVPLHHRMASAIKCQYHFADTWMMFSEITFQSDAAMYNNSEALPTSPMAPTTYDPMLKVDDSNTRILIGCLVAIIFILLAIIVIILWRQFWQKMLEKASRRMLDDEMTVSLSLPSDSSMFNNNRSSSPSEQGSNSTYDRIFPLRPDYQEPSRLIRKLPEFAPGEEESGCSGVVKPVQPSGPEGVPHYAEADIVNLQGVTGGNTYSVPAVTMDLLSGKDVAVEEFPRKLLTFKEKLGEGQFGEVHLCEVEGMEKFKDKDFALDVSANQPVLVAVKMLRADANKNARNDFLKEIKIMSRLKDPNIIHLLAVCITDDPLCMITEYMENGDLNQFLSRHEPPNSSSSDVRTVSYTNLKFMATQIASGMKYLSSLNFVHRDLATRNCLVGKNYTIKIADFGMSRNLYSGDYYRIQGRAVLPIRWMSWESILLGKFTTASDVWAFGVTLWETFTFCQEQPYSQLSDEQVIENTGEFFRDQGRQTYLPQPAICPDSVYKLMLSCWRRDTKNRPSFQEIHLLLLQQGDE
The experiment in a line: LanthaScreen Europium Kinase Binding assay, DDR2. The note with it: 5 nM DDR2, 10 nM Kinase Tracer 178, 1 h at rt; Ki from IC50 by Cheng-Prusoff; read-out: Ki DDR2. As to the method:
(§1) DDR1 and DDR2 binding assays were performed using Life Technologies LanthaScreen™ Europium Kinase Binding assay. The compounds were incubated with 5 nM DDR1 (Carna Biosciences) or 5 nM DDR2 (Life Technologies) for 1 h at rt in white 384-well OptiPlate (PerkinElmer), containing 20 nM or 10 nM Kinase Tracer 178 respectively and 2 nM Europium labelled anti-GST antibody (Life Technologies) in assay buffer (50 mM HEPES pH 7.5, 10 mM MgCI2, 1 mM EGTA and 0.01% BRIJ35). The ratio of fluorescence emission 665 nm/615 nm after excitation at 340 nm was obtained using the Tecan Spark 20M plate reader. IC50 values were determined in GraphPad Prism 7.0 software, using 4 parameter model: log(inhibitor) vs. response. IC50 values were converted in Ki using the Cheng-Prusoff equation (Ki=IC50/(1+[Tracer]/Kd).
A general note: Time-resolved FRET reads energy transfer from a long-lived donor to a nearby acceptor.

Assay [2] has as its target T2, DDR1 (Homo sapiens, UniProt Q08345).
T2 construct: purchased Carna Biosciences
Briefly: LanthaScreen Europium Kinase Binding assay, DDR1. The note with it: 5 nM DDR1, 20 nM Kinase Tracer 178, 1 h at rt; Ki from IC50 by Cheng-Prusoff; read-out: Ki DDR1. How it is done: as §1

T2 sequence (Q08345 19-913): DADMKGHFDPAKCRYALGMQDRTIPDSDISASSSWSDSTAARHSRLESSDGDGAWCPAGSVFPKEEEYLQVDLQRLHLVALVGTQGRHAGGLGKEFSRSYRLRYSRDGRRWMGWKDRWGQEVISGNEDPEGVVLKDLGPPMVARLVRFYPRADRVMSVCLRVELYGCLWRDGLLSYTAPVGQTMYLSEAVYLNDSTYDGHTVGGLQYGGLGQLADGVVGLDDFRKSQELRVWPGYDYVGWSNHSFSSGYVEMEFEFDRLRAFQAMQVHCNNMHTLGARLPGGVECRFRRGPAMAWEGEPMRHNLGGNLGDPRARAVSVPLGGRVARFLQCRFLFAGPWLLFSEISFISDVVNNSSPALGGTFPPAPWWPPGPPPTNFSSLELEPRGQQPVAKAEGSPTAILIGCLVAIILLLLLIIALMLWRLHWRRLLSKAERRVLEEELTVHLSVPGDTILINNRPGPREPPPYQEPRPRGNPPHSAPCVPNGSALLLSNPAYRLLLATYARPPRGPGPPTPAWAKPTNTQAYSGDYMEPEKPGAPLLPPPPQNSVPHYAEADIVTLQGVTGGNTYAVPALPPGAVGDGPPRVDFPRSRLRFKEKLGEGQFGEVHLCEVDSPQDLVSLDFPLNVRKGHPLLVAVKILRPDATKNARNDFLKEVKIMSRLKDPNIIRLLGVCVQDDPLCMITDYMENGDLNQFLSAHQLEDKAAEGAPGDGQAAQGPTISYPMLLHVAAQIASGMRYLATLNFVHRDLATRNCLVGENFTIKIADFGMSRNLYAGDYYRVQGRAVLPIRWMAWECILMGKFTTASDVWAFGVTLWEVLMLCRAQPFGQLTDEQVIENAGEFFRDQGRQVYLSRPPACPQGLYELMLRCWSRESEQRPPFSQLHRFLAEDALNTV

On to `Cc1ccc(C(=O)Nc2cncc(C(F)(F)F)c2)cc1[C@@H]1CCN(c2cnccn2)C1` [Example 33, (S)-4-methyl-3-(1-(pyrazin-2-yl)pyrrolidin-3-yl)-N-(5-(trifluoromethyl)pyridin-3-yl)benzamide], for which the Ki in assay [1] and in assay [2] was less than 5 nM each time.

`Cc1ccc(C(=O)Nc2cncc(C(F)(F)F)c2)cc1[C@@H]1CCN(c2cnn3ccccc23)C1` [Example 34, (S)-4-methyl-3-(1-(pyrazolo[1,5-a]pyridin-3-yl)pyrrolidin-3-yl)-N-(5-(trifluoromethyl)pyridin-3-yl)benzamide]: the inhibition constant (Ki) in assay [1] is 5 to 25 nM; in assay [2] it was less than 5 nM.

With `Cc1ccc(C(=O)Nc2cncc(C(F)(F)F)c2)cc1[C@@H]1CCN(c2cnn3cccnc23)C1` [Example 35, (S)-4-methyl-3-(1-(pyrazolo[1,5-a]pyrimidin-3-yl)pyrrolidin-3-yl)-N-(5-(trifluoromethyl)pyridin-3-yl)benzamide], the Ki in assay [1] and in assay [2] was less than 5 nM throughout.

As for `Cc1ccc(C(=O)Nc2cncc(C(F)(F)F)c2)cc1[C@@H]1CCN(c2cnc3cccnn23)C1` [Example 36, (S)-3-(1-(imidazo[1,2-b]pyridazin-3-yl)pyrrolidin-3-yl)-4-methyl-N-(5-(trifluoromethyl)pyridin-3-yl)benzamide], the Ki in assay [1] was 5 to 25 nM; in assay [2] it was less than 5 nM.

For the compound `Cc1ccc(C(=O)Nc2cncc(C(F)(F)F)c2)cc1[C@@H]1CCN(c2cnc3cnccn23)C1` [Example 37, (S)-3-(1-(imidazo[1,2-a]pyrazin-3-yl)pyrrolidin-3-yl)-4-methyl-N-(5-(trifluoromethyl)pyridin-3-yl)benzamide], the Ki in assay [1] and in assay [2] was less than 5 nM in each case.

As to `Cc1ccc(C(=O)Nc2cncc(C(F)(F)F)c2)cc1[C@@H]1CCN(c2cncc(C(=O)NC3COC3)c2)C1` [Example 38, (S)-5-(3-(2-methyl-5-((5-(trifluoromethyl)pyridin-3-yl)carbamoyl)phenyl)pyrrolidin-1-yl)-N-(oxetan-3-yl)nicotinamide], the Ki in assay [1] and in assay [2] was less than 5 nM throughout.

For the compound `Cc1ccc(C(=O)Nc2cncc(C(F)(F)F)c2)cc1[C@@H]1CCN(c2cncc(C(=O)N[C@H]3C[C@@H](O)C3)c2)C1` [Example 39, N-((1s,3R)-3-hydroxycyclobutyl)-5-((S)-3-(2-methyl-5-((5-(trifluoromethyl)pyridin-3-yl)carbamoyl)phenyl)pyrrolidin-1-yl)nicotinamide], the Ki in assay [1] and in assay [2] was less than 5 nM each time.

As to `Cc1ccc(C(=O)Nc2cncc(C(F)(F)F)c2)cc1[C@@H]1CCN(c2cncc(C(=O)N3CCN(C)CC3)c2)C1` [Example 40, (S)-4-methyl-3-(1-(5-(4-methylpiperazine-1-carbonyl)pyridin-3-yl)pyrrolidin-3-yl)-N-(5-(trifluoromethyl)pyridin-3-yl)benzamide], the inhibitory constant (Ki) is 5 to 25 nM in assay [1] and less than 5 nM in assay [2].

For `Cc1ccc(C(=O)Nc2cncc(C(F)(F)F)c2)cc1[C@@H]1CCN(c2cnccc2C(=O)NC2COC2)C1` [Example 41, (S)-3-(3-(2-methyl-5-((5-(trifluoromethyl)pyridin-3-yl)carbamoyl)phenyl)pyrrolidin-1-yl)-N-(oxetan-3-yl)isonicotinamide], the Ki in assay [1] is 25 to 100 nM; in assay [2] it was less than 5 nM.

For `Cc1ccc(C(=O)Nc2cncc(C(F)(F)F)c2)cc1[C@@H]1CCN(c2cccnc2N)C1` [Example 42, (S)-3-(1-(2-aminopyridin-3-yl)pyrrolidin-3-yl)-4-methyl-N-(5-(trifluoromethyl)pyridin-3-yl)benzamide], the Ki in assay [1] and in assay [2] was less than 5 nM throughout.

As for `Cc1ccc(C(=O)Nc2cncc(C(F)(F)F)c2)cc1[C@@H]1CCN(c2cnc3[nH]ncc3c2)C1` [Example 43, 4-methyl-3-[(3S)-1-(1H-pyrazolo[3,4-b]pyridin-5-yl)pyrrolidin-3-yl]-N-[5-(trifluoromethyl)-3-pyridyl]benzamide], the inhibition constant Ki in assay [1] and in assay [2] was less than 5 nM throughout.

For `Cc1ccc(C(=O)Nc2cncc(C(F)(F)F)c2)cc1N1CC(Oc2ccc(N)nc2)C1` [Example 44, 3-(3-((6-aminopyridin-3-yl)oxy)azetidin-1-yl)-4-methyl-N-(5-(trifluoromethyl)pyridin-3-yl)benzamide], the inhibition constant (Ki) in assay [1] was in the range of 25 to 100 nM; in assay [2], 5 to 25 nM.

As to `CC(=O)Nc1ccc(OC2CN(c3cc(C(=O)Nc4cncc(C(F)(F)F)c4)ccc3C)C2)cn1` [Example 45, 3-(3-((6-acetamidopyridin-3-yl)oxy)azetidin-1-yl)-4-methyl-N-(5-(trifluoromethyl)pyridin-3-yl)benzamide], the results for the inhibitory constant (Ki) in assay [1] and in assay [2] were 5 to 25 nM and less than 5 nM, respectively.

Regarding `COCC(=O)Nc1ccc(OC2CN(c3cc(C(=O)Nc4cncc(C(F)(F)F)c4)ccc3C)C2)cn1` [Example 46, 3-(3-((6-(2-methoxyacetamido)pyridin-3-yl)oxy)azetidin-1-yl)-4-methyl-N-(5-(trifluoromethyl)pyridin-3-yl)benzamide], the figures for the inhibition constant Ki in assay [1] and in assay [2] were 25 to 100 nM and 5 to 25 nM, respectively.

With `Cc1ccc(C(=O)Nc2cncc(C(F)(F)F)c2)cc1N1CC(Oc2cncc(N)c2)C1` [Example 47, 3-(3-((5-aminopyridin-3-yl)oxy)azetidin-1-yl)-4-methyl-N-(5-(trifluoromethyl)pyridin-3-yl)benzamide], the inhibitory constant (Ki) in assay [1] and in assay [2] was 5 to 25 nM each time.

For the compound `Cc1ccc(C(=O)Nc2cc(OC(F)F)ccn2)cc1[C@@H]1CCN(c2cncc(C(N)=O)n2)C1` [Example 51, (S)-6-(3-(5-((4-(difluoromethoxy)pyridin-2-yl)carbamoyl)-2-methylphenyl)pyrrolidin-1-yl)pyrazine-2-carboxamide], the Ki in assay [1] and in assay [2] was less than 5 nM each time.

Take `Cc1ccc(C(=O)Nc2cc(C(C)(C)C)n(C)n2)cc1[C@@H]1CCN(c2ccnc(C(N)=O)c2)C1` [Example 52, (S)-4-(3-(5-((5-(tert-butyl)-1-methyl-1H-pyrazol-3-yl)carbamoyl)-2-methylphenyl)pyrrolidin-1-yl)picolinamide]: the inhibitory constant (Ki) was 5 to 25 nM in assay [1] and less than 5 nM in assay [2].

`Cc1ccc(C(=O)Nc2cc(CN(C)C)nc(C(F)(F)F)c2)cc1[C@@H]1CCN(c2ccnc(C(N)=O)c2)C1` [Example 53, (S)-4-(3-(5-((2-((dimethylamino)methyl)-6-(trifluoromethyl)pyridin-4-yl)carbamoyl)-2-methylphenyl)pyrrolidin-1-yl)picolinamide]: the Ki in assay [1] was 5 to 25 nM; in assay [2] it was less than 5 nM.

In the case of `Cc1ccc(C(=O)Nc2cncc(C(F)(F)F)c2)cc1[C@@H]1CCN(c2cc(C(N)=O)ncn2)C1` [Example 54, (S)-6-(3-(2-methyl-5-((5-(trifluoromethyl)pyridin-3-yl)carbamoyl)phenyl)pyrrolidin-1-yl)pyrimidine-4-carboxamide], the Ki in assay [1] and in assay [2] was less than 5 nM in each case.

For the compound `Cc1ccc(C(=O)Nc2cc(C(C)(C)C(F)(F)F)on2)cc1[C@@H]1CCN(c2cnccc2C#N)C1` [Example 55, (S)-3-(1-(4-cyanopyridin-3-yl)pyrrolidin-3-yl)-4-methyl-N-(5-(1,1,1-trifluoro-2-methylpropan-2-yl)isoxazol-3-yl)benzamide], the Ki in assay [1] and in assay [2] was less than 5 nM in each case.

As for `CCc1cc(NC(=O)c2ccc(C)c([C@@H]3CCN(c4cnccc4C#N)C3)c2)no1` [Example 56, (S)-3-(1-(4-cyanopyridin-3-yl)pyrrolidin-3-yl)-N-(5-ethylisoxazol-3-yl)-4-methylbenzamide], the inhibition constant (Ki) in assay [1] and in assay [2] was less than 5 nM throughout.

`Cc1ccc(C(=O)Nc2cc(OC(F)(F)F)ccn2)cc1[C@@H]1CCN(c2ccnc(C(N)=O)c2)C1` [Example 57, (S)-4-(3-(2-methyl-5-((4-(trifluoromethoxy)pyridin-2-yl)carbamoyl)phenyl)pyrrolidin-1-yl)picolinamide]: the inhibition constant (Ki) in assay [1] was 5 to 25 nM; in assay [2], less than 5 nM.

For orientation: Ki means the dissociation constant of the complex between target and ligand, obtained from inhibition or displacement.
